Paper PMC9948168, “Vanillin-Based Indolin-2-one Derivative Bearing a Pyridyl Moiety as a Promising Anti-Breast Cancer Agent via Anti-Estrogenic Activity” (ACS Omega, 2023)

Experiments:
Assay in all cases: NCI-60 one-dose screening
Type in all cases: cell-based
HL-60(TB) = conditions: Homo sapiens, Leukemias, read-out: GI (%)
Procedure: (§1) Compounds 5a–c and 6a–o were tested using standard NCI protocols for in vitro activity at the National Cancer Institute (NCI, Bethesda, Maryland, USA), wherein compounds were tested using one single concentration of 10 μM against 60 cell lines of nine different cancer types. […] Excellent activity was observed against a single NSCLC cell line, EKVX, for compounds 5a–c (GIs = 77–86%, Table 1) with no observed activity for indoles with substituted vanillin 6a–o.
(§2) Anticancer activity was tested against 60 cancer cell lines at the NCI, Bethesda, USA. The screening process was done with a single dosage of 10 μM according to NCI protocols published on the NCI website https://dtp.cancer.gov/discovery_development/nci-60/methodology.htm.

HS 578T = conditions: Homo sapiens, Breast Cancer, read-out: GI (%)
Procedure: as §1, §2

UACC-257 = conditions: Homo sapiens, UACC-257, Melanoma, read-out: GI (%)
Procedure: as §1, §2

RPMI-8226 = conditions: Homo sapiens, RPMI-8226, Leukemias, read-out: GI (%)
Procedure: as §1, §2

MOLT-4 = conditions: Homo sapiens, MOLT-4, Leukemias, read-out: GI (%)
Procedure: as §1, §2

NCI-H23 = conditions: Homo sapiens, NCI-H23, Non-Small Cell Lung Cancer, read-out: GI (%)
Procedure: as §1, §2

NCI-H460 = conditions: Homo sapiens, NCI-H460, Non-Small Cell Lung Cancer, read-out: GI (%)
Procedure: as §1, §2

IGROV1 = conditions: Homo sapiens, IGROV-1, IGROV1, Ovarian Cancer, read-out: GI (%)
Procedure: as §1, §2

T-47D = conditions: Homo sapiens, T47D, Breast Cancer, read-out: GI (%)
Procedure: as §1, §2

SNB-19 = conditions: Homo sapiens, SNB-19, CNS Cancer, read-out: GI (%)
Procedure: as §1, §2

NCI/ADR-RES = conditions: Homo sapiens, Ovarian Cancer, read-out: GI (%)
Procedure: as §1, §2

EKVX = conditions: Homo sapiens, Non-Small Cell Lung Cancer, read-out: GI (%)
Procedure: as §1, §2

KM12 = conditions: Homo sapiens, KM12, Colon Cancer, read-out: GI (%)
Procedure: as §1, §2

DU-145 = conditions: Homo sapiens, DU-145, Prostate Cancer, read-out: GI (%)
Procedure: as §1, §2

MALME-3M = conditions: Homo sapiens, Melanoma, read-out: GI (%)
Procedure: as §1, §2

HCT-116 = conditions: Homo sapiens, HCT-116, Colon Cancer, read-out: GI (%)
Procedure: as §1, §2

NCI-H322M = conditions: Homo sapiens, Non-Small Cell Lung Cancer, read-out: GI (%)
Procedure: as §1, §2

SK-OV-3 = conditions: Homo sapiens, SK-OV-3, Ovarian Cancer, read-out: GI (%)
Procedure: as §1, §2

NCI-H522 = conditions: Homo sapiens, NCI-H522, Non-Small Cell Lung Cancer, read-out: GI (%)
Procedure: as §1, §2

SNB-75 = conditions: Homo sapiens, SNB-75, CNS Cancer, read-out: GI (%)
Procedure: as §1, §2

SN12C = conditions: Homo sapiens, Renal Cancer, read-out: GI (%)
Procedure: as §1, §2

U251 = conditions: Homo sapiens, U-251, U251, CNS Cancer, read-out: GI (%)
Procedure: as §1, §2

HOP-62 = conditions: Homo sapiens, HOP-62, Non-Small Cell Lung Cancer, read-out: GI (%)
Procedure: as §1, §2

SK-MEL-5 = conditions: Homo sapiens, SK-MEL-5, Melanoma, read-out: GI (%)
Procedure: as §1, §2

COLO 205 = conditions: Homo sapiens, COLO 205, Colon Cancer, read-out: GI (%)
Procedure: as §1, §2

SK-MEL-28 = conditions: Homo sapiens, SK-MEL-28, Melanoma, read-out: GI (%)
Procedure: as §1, §2

HT29 = conditions: Homo sapiens, HT-29, HT29, Colon Cancer, read-out: GI (%)
Procedure: as §1, §2

BT-549 = conditions: Homo sapiens, BT-549, Breast Cancer, read-out: GI (%)
Procedure: as §1, §2

LOX IMVI = conditions: Homo sapiens, Melanoma, read-out: GI (%)
Procedure: as §1, §2

ACHN = conditions: Homo sapiens, Renal Cancer, read-out: GI (%)
Procedure: as §1, §2

HOP-92 = conditions: Homo sapiens, HOP-92, Non-Small Cell Lung Cancer, read-out: GI (%)
Procedure: as §1, §2

SF-295 = conditions: Homo sapiens, SF-295, CNS Cancer, read-out: GI (%)
Procedure: as §1, §2

CCRF-CEM = conditions: Homo sapiens, Leukemias, read-out: GI (%)
Procedure: as §1, §2

NCI-H226 = conditions: Homo sapiens, NCI-H226, Non-Small Cell Lung Cancer, read-out: GI (%)
Procedure: as §1, §2

SR = conditions: Homo sapiens, Leukemias, read-out: GI (%)
Procedure: as §1, §2

OVCAR-5 = conditions: Homo sapiens, OVCAR-5, Ovarian Cancer, read-out: GI (%)
Procedure: as §1, §2

| Compound | inhibition at 10 µM (HL-60(TB)) [%] | inhibition at 10 µM (HS 578T) [%] | inhibition at 10 µM (UACC-257) [%] | inhibition at 10 µM (RPMI-8226) [%] | inhibition at 10 µM (MOLT-4) [%] | inhibition at 10 µM (NCI-H23) [%] | inhibition at 10 µM (NCI-H460) [%] | inhibition at 10 µM (IGROV1) [%] | inhibition at 10 µM (T-47D) [%] | inhibition at 10 µM (SNB-19) [%] | inhibition at 10 µM (NCI/ADR-RES) [%] | inhibition at 10 µM (EKVX) [%] | inhibition at 10 µM (KM12) [%] | inhibition at 10 µM (DU-145) [%] | inhibition at 10 µM (MALME-3M) [%] | inhibition at 10 µM (HCT-116) [%] | inhibition at 10 µM (NCI-H322M) [%] | inhibition at 10 µM (SK-OV-3) [%] | inhibition at 10 µM (NCI-H522) [%] | inhibition at 10 µM (SNB-75) [%] | further results |
| --- | --- | --- | --- | --- | --- | --- | --- | --- | --- | --- | --- | --- | --- | --- | --- | --- | --- | --- | --- | --- | --- |
| COc1cc(C=C2C(=O)Nc3ccc(Cl)cc32)ccc1OCc1ccc(Cl)cc1 (mixture of isomers) [6g] | -1.67 | 2.99 | -8.01 | -3.63 | 8.95 | 20.2 | 50.5 | 37.5 | 10 | 12.8 | 16.1 | 27.5 | 3.49 | 6.57 | 18.7 | 49 | 22.9 | 2.96 | 6.96 | 28.1 | inhibition at 10 µM (SN12C): 9.18%; inhibition at 10 µM (U251): 52.1%; inhibition at 10 µM (HOP-62): 13.1%; inhibition at 10 µM (SK-MEL-5): 8.56%; inhibition at 10 µM (COLO 205): -7.05%; inhibition at 10 µM (SK-MEL-28): -3.4%; inhibition at 10 µM (HT29): 6.96%; inhibition at 10 µM (BT-549): 4.38%; inhibition at 10 µM (LOX IMVI): 46.1%; inhibition at 10 µM (ACHN): 71.9%; inhibition at 10 µM (HOP-92): 27.8%; inhibition at 10 µM (SF-295): 6.36%; inhibition at 10 µM (CCRF-CEM): 18.1%; inhibition at 10 µM (NCI-H226): 17.1%; inhibition at 10 µM (SR): 41.6%; inhibition at 10 µM (OVCAR-5): 3.04% |
| COc1cc(C=C2C(=O)Nc3ccc(Cl)cc32)ccc1OCc1ccc(F)cc1 (mixture of isomers) [6h] | -2.34 | 5.91 | -1.98 | -0.5 | 23.3 | 18.8 | 29.5 | 22.7 | 19.5 | 8.68 | 11.7 | 11.5 | -0.4 | 10.5 | 17.7 | 52.1 | 10.7 | -9.69 | 12.1 | 22.3 | inhibition at 10 µM (SN12C): 11.1%; inhibition at 10 µM (U251): 49.3%; inhibition at 10 µM (HOP-62): 7.95%; inhibition at 10 µM (SK-MEL-5): 10.8%; inhibition at 10 µM (COLO 205): 6.56%; inhibition at 10 µM (SK-MEL-28): -3.14%; inhibition at 10 µM (HT29): 5.93%; inhibition at 10 µM (BT-549): -1.21%; inhibition at 10 µM (LOX IMVI): 31.7%; inhibition at 10 µM (ACHN): 47.3%; inhibition at 10 µM (HOP-92): 11.7%; inhibition at 10 µM (SF-295): 2.31%; inhibition at 10 µM (CCRF-CEM): 30.5%; inhibition at 10 µM (NCI-H226): 4.31%; inhibition at 10 µM (SR): 58.1%; inhibition at 10 µM (OVCAR-5): 3.31% |
| COc1cc(C=C2C(=O)Nc3ccc(Cl)cc32)ccc1OCc1ccccn1 (mixture of isomers) [6j] | 3.78 | -2.66 | -5.04 | 0.53 | 4.33 | 9.09 | -4.56 | 13.4 | 9.54 | 8.13 | 5.4 | 27 | -0.52 | -7.75 | 1.35 | -2.75 | 2.99 | -4.32 | 4.56 | 14.8 | inhibition at 10 µM (SN12C): 3.96%; inhibition at 10 µM (U251): 5.39%; inhibition at 10 µM (HOP-62): 5.56%; inhibition at 10 µM (SK-MEL-5): 3.73%; inhibition at 10 µM (COLO 205): -10.1%; inhibition at 10 µM (SK-MEL-28): -15.1%; inhibition at 10 µM (HT29): -8.55%; inhibition at 10 µM (BT-549): -8.61%; inhibition at 10 µM (LOX IMVI): 14.8%; inhibition at 10 µM (ACHN): 3.24%; inhibition at 10 µM (HOP-92): -0.22%; inhibition at 10 µM (SF-295): 6.2%; inhibition at 10 µM (CCRF-CEM): 2.39%; inhibition at 10 µM (NCI-H226): 6.59%; inhibition at 10 µM (SR): 11.5%; inhibition at 10 µM (OVCAR-5): 0.34% |
| COc1cc(C=C2C(=O)Nc3cc(Cl)ccc32)ccc1OCc1ccc(Cl)cc1 (mixture of isomers) [6l] | -11.5 | 4.96 | -8.7 | 11.9 | 6.35 | 0.58 | 9.67 | 27.7 | 14.8 | -5.43 | 0.31 | 24.8 | 3.74 | -3.93 | 2.26 | 5.08 | 4.89 | -0.69 | 4.01 | -3.14 | inhibition at 10 µM (SN12C): 1.62%; inhibition at 10 µM (U251): -5.85%; inhibition at 10 µM (HOP-62): 4.49%; inhibition at 10 µM (SK-MEL-5): 1.7%; inhibition at 10 µM (COLO 205): -13.1%; inhibition at 10 µM (SK-MEL-28): -1.11%; inhibition at 10 µM (HT29): -5.54%; inhibition at 10 µM (BT-549): 6.99%; inhibition at 10 µM (LOX IMVI): -8.24%; inhibition at 10 µM (ACHN): 7.13%; inhibition at 10 µM (HOP-92): 15.3%; inhibition at 10 µM (SF-295): 2.01%; inhibition at 10 µM (CCRF-CEM): 3.42%; inhibition at 10 µM (NCI-H226): 4.89%; inhibition at 10 µM (SR): 4.64%; inhibition at 10 µM (OVCAR-5): -2.97% |
| COc1cc(/C=C2/C(=O)Nc3cc(Cl)ccc32)ccc1O [5c] | 13.9 | 50.9 | 2.41 | 17.9 | 27.9 | 11.6 | 8.53 | 36.6 | 49.2 | 24.6 | 11.5 | 77.2 | 6.51 | -1.46 | 8.69 | 30.9 | 15.7 | 2.42 | 25.4 | 59.5 | inhibition at 10 µM (SN12C): 15.2%; inhibition at 10 µM (U251): 33.5%; inhibition at 10 µM (HOP-62): 29.2%; inhibition at 10 µM (SK-MEL-5): 29.1%; inhibition at 10 µM (COLO 205): -7.08%; inhibition at 10 µM (SK-MEL-28): 1.11%; inhibition at 10 µM (HT29): -0.03%; inhibition at 10 µM (BT-549): 23.8%; inhibition at 10 µM (LOX IMVI): 22.7%; inhibition at 10 µM (ACHN): 23.6%; inhibition at 10 µM (HOP-92): 24.8%; inhibition at 10 µM (SF-295): 15.8%; inhibition at 10 µM (CCRF-CEM): 17%; inhibition at 10 µM (NCI-H226): 10%; inhibition at 10 µM (SR): 43.3%; inhibition at 10 µM (OVCAR-5): -7.45% |
